Experimental data as given in patent US12570641B2, “Solid forms of a CDK4 inhibitor” (Pfizer Inc., priority 2020, dated 2026).

Assay: Solid form of control and stressed samples by powder X-ray diffraction
Format: physicochemical
Description: Powder X-ray diffraction analysis was conducted using a Bruker AXS D8 Endeavor diffractometer equipped with a copper radiation source. The divergence slit was set at 15 mm continuous illumination. Diffracted radiation was detected by a PSD-Lynx Eye detector, with the detector PSD opening set at 2.99 degrees. The X-ray tube voltage and amperage were set to 40 kV and 40 mA respectively. Data was collected at the copper (Cu) wavelength (CuKα=[…]) in the Theta-Theta goniometer from 3.0 to 40.0 degrees 2-Theta. A step size of 0.01 degrees and a step time of 1.0 second was used for Form 2, Form 6 and Form 8. A step size of 0.02 degrees and a step time of 0.3 seconds was used for Form 11. The antiscatter screen was set to a fixed distance of 1.5 mm. Samples were rotated during data collection. Samples were prepared by placing them in a silicon low background sample holder and rotated during collection. Data were collected using Bruker DIFFRAC Plus software and analysis was performed by EVA diffract plus software.
Powder X-ray diffraction was used to assess the solid form of the control and the stressed samples.

CC(C)n1c(C(C)(C)O)nc2c(F)cc(-c3nc(N[C@@H]4CCOC[C@H]4O)ncc3Cl)cc21 [Form 2, 1,5-anhydro-3-({5-chloro-4-[4-fluoro-2-(2-hydroxypropan-2-yl)-1-(propan-2-yl)-1H-benzimidazol-6-yl]pyrimidin-2-yl}amino)-2,3-dideoxy-D-threo-pentitol monohydrate]
solid form change by PXRD (40° C./5% RH for six weeks): disorder | solid form change by PXRD (40° C./75% RH for six weeks): No form change was detected | solid form change by PXRD (70° C./5% RH for one week): Slight disorder | solid form change by PXRD (70° C./75% RH for one week): No form change was detected
